We go through 2 compounds from US5576187A (priority 1994, dated 1996).

This assay relates to anti-chlorpyrifos monoclonal antibody. Type of assay: binding, mouse.

For the compound `Cn1c(Cl)c(Cl)cc(Cl)c1=O` [N-methyl-3,5,6-trichloro-2-pyridinone], the “relative reactivity: concentration equivalent to 1 ppB of chlorpyrifos in the immunoassay” value is listed as 75 ppm.

Turning to `CCOP(=O)(Cc1ccc(C)cc1)OCC` [diethyl 4-methylbenzylphosphonate], the “relative reactivity: concentration equivalent to 1 ppB of chlorpyrifos in the immunoassay” value is reported as 50 ppm.
